Numbers after ± are expanded uncertainties.
Conditions: Hot wire method

C=C(F)C(F)(F)F [2,3,3,3-tetrafluoro-1-propene]
thermal conductivity (241.92 K, 6085 kPa, Liquid): 0.08525 ± 0.00094 W/m/K
thermal conductivity (241.92 K, 10976 kPa, Liquid): 0.08707 ± 0.00096 W/m/K
thermal conductivity (241.93 K, 15764 kPa, Liquid): 0.08965 ± 0.00099 W/m/K
thermal conductivity (241.94 K, 69 kPa, Gas): 0.00942 ± 0.00033 W/m/K
thermal conductivity (241.95 K, 77 kPa, Gas): 0.00944 ± 0.00033 W/m/K
thermal conductivity (241.95 K, 20987 kPa, Liquid): 0.09158 ± 0.001 W/m/K
thermal conductivity (241.97 K, 86 kPa, Gas): 0.00944 ± 0.00033 W/m/K
thermal conductivity (242 K, 880 kPa, Liquid): 0.08218 ± 0.00091 W/m/K
thermal conductivity (242.01 K, 6088 kPa, Liquid): 0.08496 ± 0.00093 W/m/K
thermal conductivity (242.01 K, 10981 kPa, Liquid): 0.08718 ± 0.00096 W/m/K
thermal conductivity (242.02 K, 15753 kPa, Liquid): 0.08918 ± 0.00098 W/m/K
thermal conductivity (242.19 K, 69 kPa, Gas): 0.00931 ± 0.00033 W/m/K
thermal conductivity (242.2 K, 78 kPa, Gas): 0.00934 ± 0.00033 W/m/K
thermal conductivity (242.22 K, 87 kPa, Gas): 0.00935 ± 0.00033 W/m/K
thermal conductivity (242.34 K, 883 kPa, Liquid): 0.08243 ± 0.00091 W/m/K
thermal conductivity (242.34 K, 10985 kPa, Liquid): 0.08732 ± 0.00096 W/m/K
thermal conductivity (242.34 K, 15757 kPa, Liquid): 0.08916 ± 0.00098 W/m/K
thermal conductivity (242.35 K, 6087 kPa, Liquid): 0.08514 ± 0.00093 W/m/K
thermal conductivity (242.35 K, 20980 kPa, Liquid): 0.09106 ± 0.001 W/m/K
thermal conductivity (242.35 K, 21022 kPa, Liquid): 0.09102 ± 0.00099 W/m/K
thermal conductivity (242.46 K, 15754 kPa, Liquid): 0.08876 ± 0.00097 W/m/K
thermal conductivity (242.47 K, 69 kPa, Gas): 0.00926 ± 0.00033 W/m/K
thermal conductivity (242.47 K, 78 kPa, Gas): 0.00926 ± 0.00033 W/m/K
thermal conductivity (242.47 K, 886 kPa, Liquid): 0.08219 ± 0.0009 W/m/K
thermal conductivity (242.47 K, 6087 kPa, Liquid): 0.08483 ± 0.00093 W/m/K
thermal conductivity (242.47 K, 10989 kPa, Liquid): 0.08709 ± 0.00095 W/m/K
thermal conductivity (242.5 K, 87 kPa, Gas): 0.00928 ± 0.00033 W/m/K
thermal conductivity (242.52 K, 87 kPa, Gas): 0.00925 ± 0.00032 W/m/K
thermal conductivity (242.54 K, 68 kPa, Gas): 0.00927 ± 0.00033 W/m/K
thermal conductivity (242.54 K, 76 kPa, Gas): 0.00929 ± 0.00033 W/m/K
thermal conductivity (242.8 K, 20976 kPa, Liquid): 0.09105 ± 0.00099 W/m/K
thermal conductivity (242.81 K, 10986 kPa, Liquid): 0.08711 ± 0.00095 W/m/K
thermal conductivity (242.81 K, 15750 kPa, Liquid): 0.08896 ± 0.00097 W/m/K
thermal conductivity (242.81 K, 21021 kPa, Liquid): 0.09106 ± 0.001 W/m/K
thermal conductivity (242.83 K, 6086 kPa, Liquid): 0.08481 ± 0.00093 W/m/K
thermal conductivity (242.85 K, 891 kPa, Liquid): 0.08226 ± 0.0009 W/m/K
thermal conductivity (242.88 K, 87 kPa, Gas): 0.00926 ± 0.00033 W/m/K
thermal conductivity (242.9 K, 77 kPa, Gas): 0.00929 ± 0.00033 W/m/K
thermal conductivity (242.91 K, 68 kPa, Gas): 0.0093 ± 0.00033 W/m/K
thermal conductivity (242.94 K, 15756 kPa, Liquid): 0.08889 ± 0.00097 W/m/K
thermal conductivity (242.96 K, 10985 kPa, Liquid): 0.08695 ± 0.00095 W/m/K
thermal conductivity (242.98 K, 6086 kPa, Liquid): 0.08445 ± 0.00093 W/m/K
thermal conductivity (243 K, 892 kPa, Liquid): 0.082 ± 0.0009 W/m/K
thermal conductivity (243.15 K, Liquid): 0.08189 ± 0.00053 W/m/K
thermal conductivity (243.28 K, 86 kPa, Gas): 0.00928 ± 0.00033 W/m/K
thermal conductivity (243.29 K, 21014 kPa, Liquid): 0.09132 ± 0.001 W/m/K
thermal conductivity (243.3 K, 77 kPa, Gas): 0.0093 ± 0.00033 W/m/K
thermal conductivity (243.3 K, 20966 kPa, Liquid): 0.09102 ± 0.001 W/m/K
thermal conductivity (243.31 K, 69 kPa, Gas): 0.00933 ± 0.00033 W/m/K
thermal conductivity (243.32 K, 10987 kPa, Liquid): 0.08693 ± 0.00095 W/m/K

— the NIST ThermoML archive (doi:10.1021/je200811n)
